Results from patent US11008308B2, “Quinazolinones as PARP14 inhibitors” (Ribon Therapeutics Inc., priority 2017, dated 2021).
Counter-ions that a name gives are not always drawn.

Key:
[1] = test system: LL/2 cells; experiment: Tumor growth and survival in LL/2 murine syngeneic model; assay type: in vivo, mouse (C57BL/6); conditions: LL/2 subcutaneous, female C57BL/6 mice, 500 mg/kg PO BID, study terminated on D21
Description: For the LL/2 study (FIGS. 4A-4C), female C57BL/6 mice were inoculated subcutaneously in the right flank with 5×10^5 LL/2 cells (ATCC, CRL-1642™) for tumor development. Five days after tumor inoculation, 16 mice with tumor size ranging from 37-72 mm^3 (average tumor size 51 mm^3) were selected and assigned into 2 groups using stratified randomization with 8 mice in each group based upon their tumor volumes. The treatments were started from the next day post randomization (defined as randomization day DO) and were treated with vehicle (0.5% methylcellulose+0.2% Tween 80), or the compound of Example 235 (500 mg/kg PO BID*21 days). The tumor sizes were measured three times per week during the treatment. The entire study was terminated on D21.
Statistical significance, calculated using 2 way ANOVA multiple comparisons in which each treatment group was compared to vehicle control, is indicated by an asterisk. Statistics were performed on groups with less than 20% animal loss (D20 for 4T1, D17 for LL/2). Survival benefit was determined for the LL/2 study (FIG. 4B). Individual mice were euthanized once they reached the termination endpoint (TV>2000 mm3). The time from treatment initiation to termination was deemed as its survival time and plotted in a Kaplan-Meier survival curve format. Mice remaining at study end date of 21 days were euthanized at day 21 after treatment initiation. […]

[2] = test system: 4T1 cells; experiment: Tumor growth in 4T1 murine syngeneic model; assay type: in vivo, mouse (BALB/c); conditions: 4T1 orthotopic, female BALB/c mice, 500 mg/kg PO BID, study terminated on D20
Description: FIGS. 3A and 4A illustrate that a PARP14 inhibitor (Example 235) reduces tumor growth in the murine syngeneic models (A) 4T1 and (B) LL/2. For the 4T1 study (FIGS. 3A and 3B), female BALB/c mice were inoculated orthotopically in the mammary fat pad with 1×10^5 4T1 cells (ATCC, CRL-2539™) for tumor development. Seven days after tumor inoculation, 16 mice with tumor size ranging from 41-78 mm^3 (average tumor size 56 mm^3) were selected and assigned into 2 groups using stratified randomization with 8 mice in each group based upon their tumor volumes. The treatments were started from the next day post randomization (defined as randomization day DO) and were treated with vehicle (0.5% methylcellulose+0.2% Tween 80), or the compound of Example 235 (500 mg/kg PO BID*21 days). The tumor sizes were measured three times per week during the treatment. The entire study was terminated on D20.
Statistical significance, calculated using 2 way ANOVA multiple comparisons in which each treatment group was compared to vehicle control, is indicated by an asterisk. Statistics were performed on groups with less than 20% animal loss (D20 for 4T1, D17 for LL/2). Survival benefit was determined for the LL/2 study (FIG. 4B). Individual mice were euthanized once they reached the termination endpoint (TV>2000 mm3). […]

[3] = target: catalytic domain of human PARP14 (Homo sapiens (Human), UniProt Q460N5); experiment: Enzymatic assay for inhibition of PARP14 (DELFIA, auto-modification by biotin-NAD); assay type: biochemical; conditions: 50 nM PARP14, 3 μM biotin-NAD
catalytic domain of human PARP14, sequence (Q460N5 1611-1801): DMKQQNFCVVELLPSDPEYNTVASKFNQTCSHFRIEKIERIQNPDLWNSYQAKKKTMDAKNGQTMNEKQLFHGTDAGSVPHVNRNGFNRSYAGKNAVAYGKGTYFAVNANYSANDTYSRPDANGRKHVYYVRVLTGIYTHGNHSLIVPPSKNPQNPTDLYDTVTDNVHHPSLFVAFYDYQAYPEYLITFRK
Procedure: An N-terminal His-TEV fusion tag was used to purify the protein from cell lysates. The His-TEV tag was left on the protein for use in the enzymatic assay.
Enzymatic inhibition of PARP14 was measured using a dissociation-enhanced lanthanide fluorescence immunoassay (DELFIA) monitoring the auto-modification of PARP14 by biotinylated nicotinamide adenine dinucleotide (biotin-NAD). 1 μL of a dose response curve of each test compound was spotted in 384-well nickel-coated white microplates (Thermo) using a Mosquito (TTP Labtech). Reactions were performed in a 50 μL volume by adding 40 μL of PARP14 in assay buffer (20 mM HEPES pH==8, 100 mM NaCl, 0.1% bovine serum albumin, 2 mM DTT and 0.002%0 Tween20), incubating with test compound at 25° C. for 30 min, then adding 10 μL of biotin-NAD (Biolog). The final concentrations of PARP14 and biotin-NAD are 50 nM and 3 μM, respectively. Reactions proceeded at 25° C. for 3 h, then were quenched with 5 μL of 10 mM unmodified nicotinamide adenine dinucleotide (Sigma-Aldrich). […] After a 5 min incubation the plate was read on an Envision platereader equipped with a LANCE/DELFIA top mirror (Perkin Elmer) using excitation of 340 nm and emission of 615 nm to measure the amount of Europium present in each well, informing on the amount of biotin-NAD that was transferred in the automodification reaction. […]

O=c1[nH]c(CS[C@H]2CC[C@H](O)CC2)nc2cc(OCC3CC3)cc(F)c12 [Example 235, 7-(Cyclopropylmethoxy)-5-fluoro-2-(((trans-4-hydroxycyclohexyl)thio)methyl)quinazolin-4(3H)-one]
Tumor growth inhibition versus vehicle group [1]: 63% | Tumor growth inhibition versus vehicle group [2]: 31%

Cc1cccc2c(=O)[nH]c(CS[C@@H]3CCC[C@H](CN(C)C)C3)nc12 (relative stereo) [Example 72, 2-((((cis)-3-((Dimethylamino)methyl)cyclohexyl)thio)methyl)-8-methyl quinazolin-4(3H)-one Trifluoroacetate]
IC50 [3]: > 10 µM

O=c1[nH]c(CSC2CCOCC2)nc2cc(N[C@H]3CCC[C@@H]3F)cc(F)c12 (racemic) [Example 305]
IC50 [3]: < 1 µM
